Results on 3 compounds are retold here after patent US20040260721A1, “Methods and systems for creation of a coherence database” (priority 2003, published 2004).

Structures are written as SMILES. “Also recorded” adds a separate entry of the source.

The subject of series [1] is Saccharomyces cerevisiae. Briefly: Biochemical and gene expression profiling with pathway analysis of yeast treated with fungicidal drugs. The note with it: inhibitory dose; three replicate samples per drug; single harvest timepoint. It is filed as cell-based. Here is the method:
An experiment was performed to attempt to characterize four fungicidal drugs: Amphoteracin B, Ketaconazole, Fluconazole, and Posaconazole. Yeast samples (Saccharomyces cerevisiae) were treated with an inhibitory dose of each drug, using three replicate samples per drug, and harvested at a single timepoint. Biochemical profiling and gene expression profiling data were gathered on each yeast sample, and summarized and related to KEGG as described in Example 6.

In series [2] the test system is liver. Briefly: Biochemical profiling (LC/MS) of livers from rats dosed with acetaminophen. In kind it is in vivo. The following applies: rat liver. As to the method:
Acetaminophen overdose is one of the leading causes of liver failure. In this experiment, rats were dosed with acetaminophen and livers were harvested across a time course. Two doses of acetaminophen were used (50 mg/kg and 1500 mg/kg), as well as a control group that received no acetaminophen. The harvest times were 6, 18, 24, and 48 hours. Three rats (biological replicates) were in each treatment group, wherein a treatment group is defined as each combination of dose and time. […] Still referring to FIG. 2, the information recorded in data tables 221, 223, and 224 could also be recorded in data tables 218 and 219 (time_summary_set, and tissue_summary_set), thus allowing comparison by time or tissue type.
The resulting liver samples were extracted and analyzed by biochemical profiling (BCP) using LC/MS in both positive and negative modes, yielding a biochemical profile containing intensities on more than 100 compounds. Three technical replicates of each rat liver were analyzed. […]
A summary set was created for each treatment group, and the experimental information associated with that treatment group (treatment, dosage, timepoint, baseline of comparison) was recorded in the coherence database. […] Comparing a treated group to a control group created summaries that were recorded in the treatment_summary_set data table (FIG. 2, table 217) of the coherence database schema. […]

On to `CC[C@@H]([C@H](C)O)n1ncn(-c2ccc(N3CCN(c4ccc(OC[C@@H]5CO[C@@](Cn6cncn6)(c6ccc(F)cc6F)C5)cc4)CC3)cc2)c1=O` [Posaconazole], for which, in series [1], the “comparison of pathway perturbations between treatments” value is “behaved most like Fluconazole; also recorded: perturbations that were unlike those of Amphoteracin B”.

For `CC(=O)Nc1ccc(O)cc1` [acetaminophen], the “timepoint with most perturbed compounds (biochemical profile vs matched control)” value in series [2] (50 mg/kg and 1500 mg/kg, harvest at 6, 18, 24 and 48 hours) is listed as “more compounds were perturbed at the 18 hour timepoint than any other”. Further, the “pathway showing the primary metabolic disturbance” value in series [2] (18 hour timepoint, pathway viewing tool (KEGG)) is “nitrogen metabolism pathway was most likely the source of the primary metabolic disturbance”. With `OC(Cn1cncn1)(Cn1cncn1)c1ccc(F)cc1F` [Fluconazole], the “comparison of pathway perturbations between treatments” value in series [1] is “perturbations that were unlike those of Amphoteracin B”.
